Assay results from patent US6696578B2, “Difuropyrone derivatives” (Mount Sinai Hospital, priority 1999, dated 2004).

Legend:
[1] = Rehydrolysis of purified CM-1 calibrator with 6N HCl for different time points; type: physicochemical; settings: 110° C.
Experimental: 100 μl of CM-1 calibrator was lyophilized, resuspended in 3.0 ml of 50% methanol and UV absorbance was measured. Five aliquots of 500 μl each were rehydrolyzed with 1000 μl 6N HCl at 110° C. for 3, 6, 12, 24 and 48 hrs. The rehydrolyzed CM-1 was lyophilized and resuspended in 500 μl of 50% methanol and UV absorbance was measured. Methanol was then evaporated and the samples were resuspended in 500 μl of the mobile phase and injected into the HPLC analytical column. The results of rehydrolysis of CM-1 were compared to the unhydrolyzed CM-1 calibrator.

[2] = Solubility of CM-1 in various solvents; type: physicochemical
[3] = Storage of CM-1 calibrator at room temperature or in freezer, UV absorbance; type: physicochemical; settings: calibrator in 50% methanol, eight months; for UV absorbance at 306 nm after storage: reference calibrator 0.69 AU
Experimental: The UV absorbance of CM-1 calibrator (30 ug/ml of 50% methanol) was measured. An aliquot of CM-1 calibrator was kept on the bench top for […], and another aliquot was kept in a storage box in a −70° C. freezer for an equal length of time. The UV absorbance of CM-1 calibrator aliquot was measured after eight months of respective storage procedure.

[4] = Rehydrolysis of purified CM-1 with 6N HCl, UV absorption; type: physicochemical; settings: purified CM-1, 6N HCl, 110° C., 48 hrs
Experimental: An aliquot of purified CM-1 was lyophilized. The lyophilized CM-1 was resuspended in 7 ml of 50% HPLC grade methanol. The UV absorption of CM-1 was measured at 306 nm using a Shimatzu Spectrophotometer. The methanol was evaporated and CM-1 was rehydrolysed for 48 hrs in 6N HCl at 110° C. CM-1 was then lyophilized and resuspended in 7 ml of 50% HPLC grade methanol. The UV absorption of CM-1 was measured.

[5] = system: SM and MD cartilage cultures (calf metaphalangeal joint chondrocytes); experiment: Bovine cartilage cultures treated with interleukin-1β; type: cell-based; settings: 10 ng/ml for 7 days prior to harvesting
Experimental: Articular cartilage was excised separately from the superficial-middle (SM) or middle-deep (MD) layers of calf metaphalangeal joint using a sterile technique as described by Boyle et al. The cartilage slices were placed in a petri dish containing Ham's F12 and 1% antibiotics in HAT. Chondrocytes were isolated from the SM and MD extracellular matrix by sequential enzymatic digestion using proteinase (0.5%, 1 hour, 37° C.), washed three times with Ham's F12 medium and finally digested with collagenase A (0.1%, overnight, 37° C.). Teflon filter inserts (Millicell CMR, Millipore Corp., Bedford, Mass., USA) were placed into the wells of the 24 well culture dish, coated with type II collagen (0.5 mg/ml of 0.1N acetic acid), dried overnight and UV sterilized for 30 mins. The filter inserts were washed thoroughly with Ham's F12 before plating the cells. The isolated SM and MD chondrocytes were washed extensively and resuspended in Ham's F12 with 5% fetal bovine serum (FBS) and plated on the teflon inserts at a density of 3.0×10^6/cm^2. The cells were supplemented with the medium containing 20% FBS and 100 μg/ml ascorbic acid (added fresh at all times) from day 7 onwards every alternate working day. Some cartilage filter cultures were treated with 10 ng/ml interleukin-1β (Il-1β, human recombinant, Sigma) for 7 days (three changes of the Ham's F12 with 20% FBS and Il-1β) prior to harvesting. The chondrocytes were grown at 37° C., 100% humidity and 5% CO2. The chondrocyte cultures were harvested at fixed time points i.e. day 21, 35, and 56 and stored at −20° C. till the analysis day.
The untreated (controls) and Il-1β-treated SM and MD cartilage cultures were analyzed for cartilage thickness and collagen, proteoglycan, pyridinoline, deoxypyridinoline, and CM-1 content as described herein.

| Substance | CM-1 yield after rehydrolysis (unhydrolyzed calibrator = 100%) ([1]; 3 hrs (maintained up to 12 hrs)) [%] | CM-1 yield after rehydrolysis (unhydrolyzed calibrator = 100%) ([1]; 24 hrs) [%] | CM-1 yield after rehydrolysis (unhydrolyzed calibrator = 100%) ([1]; 48 hrs) [%] | stability when rehydrolyzed with 6N HCl ([1]; prolonged period) | solubility ([2]; chloroform) | solubility ([2]; hexane) | solubility ([2]; methanol) | solubility ([2]; water) | decrease of UV absorbance at 306 nm after storage ([3]; room temperature) [%] | UV absorbance at 306 nm after storage ([3]; room temperature) [AU] | UV absorbance at 306 nm after storage ([3]; −70° C. freezer) [AU] | decrease of UV absorption at 276 nm after rehydrolysis [4] [%] | decrease of UV absorption at 306 nm after rehydrolysis [4] [%] | UV absorption at 276 nm after rehydrolysis ([4]; before treatment 1.00 (278 nm)) [AU] | UV absorption at 306 nm after rehydrolysis ([4]; before treatment 1.884) [AU] | glycosaminoglycan (GAG) content ([5]; SM and DM groups) | collagen content ([5]; SM and DM groups, in particular day 56) | cartilage thickness versus untreated controls ([5]; SM and MD groups) | Pyd and Dpyd content ([5]; day 35 and more so day 56) |
| --- | --- | --- | --- | --- | --- | --- | --- | --- | --- | --- | --- | --- | --- | --- | --- | --- | --- | --- | --- |
| 2,6-dimethyl-difuro-8-pyrone [CM-1] | 64 | 19 | 4.5 | not stable | insoluble | insoluble | highly soluble | highly soluble | 75 | 0.1718 | 0.73 | 51 | 75 | 0.4865 | 0.469 |  |  |  |  |
| Il-1β: interleukin-1β, human recombinant, Sigma; used to treat cartilage filter cultures |  |  |  |  |  |  |  |  |  |  |  |  |  |  |  | decreased | decreased | thinner | decrease |
